Among the data in patent publication US9624229B2, “Pyrimidine-2-amine compounds and their use as inhibitors of JAK kinases” (Rigel Pharmaceuticals, Inc., priority 2008, dated 2017) are GI50 values, retold here.

The structures appear in SMILES notation.

Ba/F3 V617F cells, sequence (O60674 whole entry V617F): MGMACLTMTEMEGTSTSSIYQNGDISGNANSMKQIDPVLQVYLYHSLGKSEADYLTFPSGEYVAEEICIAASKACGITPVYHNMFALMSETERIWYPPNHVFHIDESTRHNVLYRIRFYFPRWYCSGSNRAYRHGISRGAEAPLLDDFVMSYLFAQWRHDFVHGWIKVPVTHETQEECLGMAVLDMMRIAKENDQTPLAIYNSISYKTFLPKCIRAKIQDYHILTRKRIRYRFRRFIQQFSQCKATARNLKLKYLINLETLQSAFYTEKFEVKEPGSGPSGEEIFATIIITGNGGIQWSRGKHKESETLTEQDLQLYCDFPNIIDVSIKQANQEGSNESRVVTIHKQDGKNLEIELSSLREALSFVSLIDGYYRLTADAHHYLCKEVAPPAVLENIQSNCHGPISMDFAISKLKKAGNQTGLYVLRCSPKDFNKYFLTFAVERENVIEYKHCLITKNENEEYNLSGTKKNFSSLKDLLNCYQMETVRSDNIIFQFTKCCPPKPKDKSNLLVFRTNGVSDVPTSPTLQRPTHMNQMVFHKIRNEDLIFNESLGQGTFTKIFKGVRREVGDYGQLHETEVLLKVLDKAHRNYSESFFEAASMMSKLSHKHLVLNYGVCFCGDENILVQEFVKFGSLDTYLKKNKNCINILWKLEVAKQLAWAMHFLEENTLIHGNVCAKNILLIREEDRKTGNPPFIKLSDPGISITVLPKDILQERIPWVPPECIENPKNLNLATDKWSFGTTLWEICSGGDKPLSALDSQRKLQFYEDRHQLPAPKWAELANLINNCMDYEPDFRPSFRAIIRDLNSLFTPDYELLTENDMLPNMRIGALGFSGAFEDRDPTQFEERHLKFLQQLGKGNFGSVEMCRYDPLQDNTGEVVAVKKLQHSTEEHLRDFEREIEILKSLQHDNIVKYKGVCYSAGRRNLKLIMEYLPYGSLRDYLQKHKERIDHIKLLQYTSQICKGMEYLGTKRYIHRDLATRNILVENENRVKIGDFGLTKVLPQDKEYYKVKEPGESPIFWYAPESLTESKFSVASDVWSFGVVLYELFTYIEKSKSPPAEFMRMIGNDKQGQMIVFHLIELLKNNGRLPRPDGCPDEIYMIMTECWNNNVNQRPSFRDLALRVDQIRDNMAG

The first experiment concerns the target Ba/F3 V617F cells (Homo sapiens, UniProt O60674, V617F, cells depend on it). The experiment is described as follows: Proliferation assay (Cell Titer-Glo, 72 h) utilizing Ba/F3 V617F cells. It counts as cell-based, mouse. The conditions noted are these: Ba/F3 V617F cells, proliferation, level of activity given as class symbol, read-out: IC50 (the source's name). As to the method:
Ba/F3 V617F cells are maintained and plated in RPMI with 10% FBS. Plating density for these cells is 1×10^5 cells/mL.
The cells were resuspended in a corresponding medium at a required cell density (see above). 100μ of cell suspension was added to each well of a flat bottom 96 well white plate. The compound was serially diluted in DMSO from 5 mM in 3-fold dilutions, and then diluted 1:250 in the RPMI 1640 medium containing 5% FBS and pen/strep. 100 μL of resulting 2× compound solution was added per well in duplicate and the cells were allowed to proliferate for 72 hours at 37° C.
Proliferation was measured using Cell Titer-Glo. The substrate was thawed and allowed to come to ambient temperature. After removal of top 100 μL of medium from each well, 100 μL of the premixed Cell Titer-Glo reagent was added to each well. The plates were mixed on an orbital shaker for three minutes to induce lysis and incubated at ambient temperature for an additional five minutes to allow the signal to equilibrate. The Luminescence was read on the Wallac Plate Reader.
The results of the ability of the compounds of the invention to inhibit JAK2 activity, when tested in the above assay utilizing Ba/F3 V617F cells, are shown in the following Tables 2-3 wherein the level of activity (i.e., the IC50) for each compound is indicated in Tables 2-3. The compound numbers in Tables 2-3 refers to the compounds disclosed herein as being prepared by the methods disclosed herein: […]
Background: ATP-based viability assays read luminescence as a measure of living cells.
With `Cc1cc(Nc2nccc(-c3ccc(N4C[C@@H](C)O[C@@H](C)C4)nc3)n2)ccc1N1C[C@@H]2C[C@H]1CO2` (relative stereo) [compound 201], the GI50 was less than 1000 nM.

Staying with this experiment, now noted: Ba/F3 V617F cells, proliferation, level of activity to inhibit JAK2, read-out: IC50 (the source's name).
As to `Cc1cc(Nc2nccc(-c3ccc(N(C)C)nc3)n2)ccc1N1C[C@@H]2C[C@H]1CN2C` [compound 1, 4-(6-(N,N-dimethylamino)pyridin-3-yl)-N-(3-methyl-4-((1S,4S)-5-methyl-2,5-diazabicyclo[2.2.1]heptan-2-yl)phenyl)pyrimidin-2-amine], the GI50 is less than 1000 nM.

Consider `Cc1cc(Nc2ncc(C)c(-c3ccc(N(C)C)nc3)n2)ccc1N1C[C@@H]2C[C@H]1CN2C` [compound 2, 4-(6-(N,N-dimethylamino)pyridin-3-yl)-5-methyl-N-(3-methyl-4-((1S,4S)-5-methyl-2,5-diazabicyclo[2.2.1]heptan-2-yl)phenyl)pyrimidin-2-amine], for which the GI50 was less than 1000 nM. As for `Cc1cc(Nc2ncc(C(F)(F)F)c(-c3ccc(N(C)C)nc3)n2)ccc1N1C[C@@H]2C[C@H]1CN2C` [compound 3, 4-(6-(N,N-dimethylamino)pyridin-3-yl)-5-trifluoromethyl-N-(3-methyl-4-((1S,4S)-5-methyl-2,5-diazabicyclo[2.2.1]heptan-2-yl)phenyl)pyrimidin-2-amine], the GI50 was 1000 to 10000 nM. For `Cc1cc(Nc2ncc(F)c(-c3ccc(N(C)C)nc3)n2)ccc1N1C[C@@H]2C[C@H]1CN2C` [compound 4, 4-(6-(N,N-dimethylamino)pyridin-3-yl)-5-fluoro-N-(3-methyl-4-((1S,4S)-5-methyl-2,5-diazabicyclo[2.2.1]heptan-2-yl)phenyl)pyrimidin-2-amine], the GI50 is less than 1000 nM.

With `CN(C)c1ccc(-c2nc(Nc3ccc(N4C[C@@H]5C[C@H]4CN5C)c(F)c3)ncc2F)cn1` [compound 5, 4-(6-(N,N-dimethylamino)pyridin-3-yl)-5-fluoro-N-(3-fluoro-4-((1S,4S)-5-methyl-2,5-diazabicyclo[2.2.1]heptan-2-yl)phenyl)pyrimidin-2-amine], the GI50 was 1000 to 10000 nM. For `Cc1cnc(Nc2ccc(N3C[C@@H]4C[C@H]3CN4C)c(F)c2)nc1-c1ccc(N(C)C)nc1` [compound 6, 4-(6-(N,N-dimethylamino)pyridin-3-yl)-5-methyl-N-(3-fluoro-4-((1S,4S)-5-methyl-2,5-diazabicyclo[2.2.1]heptan-2-yl)phenyl)pyrimidin-2-amine], the GI50 is less than 1000 nM. In the case of `CN(C)c1ccc(-c2ccnc(Nc3ccc(N4C[C@@H]5C[C@H]4CN5C)c(F)c3)n2)cn1` [compound 7, 4-(6-(N,N-dimethylamino)pyridin-3-yl)-N-(3-fluoro-4-((1S,4S)-5-methyl-2,5-diazabicyclo[2.2.1]heptan-2-yl)phenyl)pyrimidin-2-amine], the GI50 was less than 1000 nM. Consider `Cc1cc(Nc2nccc(-c3cnc4c(c3)OCCN4C)n2)ccc1N1C[C@@H]2C[C@H]1CN2C` [compound 8, 4-(4-methyl-3,4-dihydro-2H-pyrido[3,2-b][1,4]oxazin-7-yl)-N-(3-methyl-4-((1S,4S)-5-methyl-2,5-diazabicyclo[2.2.1]heptan-2-yl)phenyl)pyrimidin-2-amine], for which the GI50 was less than 1000 nM. For `CN1CCOc2cc(-c3ccnc(Nc4ccc(N5C[C@@H]6C[C@H]5CN6C)c(F)c4)n3)cnc21` [compound 9, 4-(4-methyl-3,4-dihydro-2H-pyrido[3,2-b][1,4]oxazin-7-yl)-N-(3-fluoro-4-((1S,4S)-5-methyl-2,5-diazabicyclo[2.2.1]heptan-2-yl)phenyl)pyrimidin-2-amine], the GI50 is less than 1000 nM. On to `Cc1cc(Nc2nccc(-c3ccc(N4CCOCC4)nc3)n2)ccc1N1C[C@@H]2C[C@H]1CN2C` [compound 10, 4-(6-(morpholin-4-yl)pyridin-3-yl)-N-(3-methyl-4-((1S,4S)-5-methyl-2,5-diazabicyclo[2.2.1]heptan-2-yl)phenyl)pyrimidin-2-amine], for which the GI50 is less than 1000 nM. Consider `Cc1cc(Nc2nccc(-c3ccc(N4C[C@@H]5C[C@H]4CN5C)nc3)n2)ccc1N1CCN(C)CC1` [compound 12, 4-(6-((1S,4S)-5-methyl-2,5-diazabicyclo-[2.2.1]-heptan-2-yl)pyridin-3-yl)-N-(3-methyl-4-(4-methyl-piperazin-1-yl)phenyl)-pyrimidin-2-amine], for which the GI50 was 1000 to 10000 nM. The same measure, in the same setting: with `Cc1cc(Nc2nccc(-c3ccc(N4C[C@@H]5C[C@H]4CN5c4ccc(F)cc4)nc3)n2)ccc1N1CCN(C)CC1` [compound 13, 4-(6-((1S,4S)-5-(4-fluorophenyl)-2,5-diazabicyclo-[2.2.1]-heptan-2-yl)pyridin-3-yl)-N-(3-methyl-4-(4-methyl-piperazin-1-yl)phenyl)-pyrimidin-2-amine] the figure was less than 1000 nM. For the compound `Cc1cc(Nc2nccc(-c3ccc(N(C)C)cc3)n2)ccc1N1C[C@@H]2C[C@H]1CN2C` [compound 14, 4-(4-(N,N-dimethylamino)phenyl)-N-(3-methyl-4-((1S,4S)-5-methyl-2,5-diazabicyclo[2.2.1]heptan-2-yl)phenyl)pyrimidin-2-amine], the GI50 was less than 1000 nM.

With `CN(C)c1ccc(-c2ccnc(Nc3ccc(N4C[C@@H]5C[C@H]4CN5C)c(F)c3)n2)cc1` [compound 15, 4-(4-(N,N-dimethylamino)phenyl)-N-(3-fluoro-4-((1S,4S)-5-methyl-2,5-diazabicyclo[2.2.1]heptan-2-yl)phenyl)pyrimidin-2-amine], the GI50 is 1000 to 10000 nM. On to `CC(=O)N1CCN(c2ccc(-c3ccnc(Nc4ccc(N5C[C@@H]6C[C@H]5CN6C)c(F)c4)n3)cn2)CC1` [compound 16, 4-(6-(4-acetylpiperazin-1-yl)pyridin-3-yl)-N-(3-fluoro-4-((1S,4S)-5-methyl-2,5-diazabicyclo[2.2.1]heptan-2-yl)phenyl)pyrimidin-2-amine], for which the GI50 is less than 1000 nM. Turning to `CN1C[C@@H]2C[C@H]1CN2c1ccc(Nc2nccc(-c3cnc4c(c3)OC(C)(C)C(=O)N4)n2)cc1F` [compound 19, 4-(2,2-dimethyl-3-oxo-3,4-dihydro-2H-pyrido[3,2-b][1,4]oxazin-7-yl)-N-(3-fluoro-4-((1S,4S)-5-methyl-2,5-diazabicyclo[2.2.1]heptan-2-yl)phenyl)pyrimidin-2-amine], the GI50 is less than 1000 nM. Take `Cc1cc(Nc2nccc(-c3ccc4cc[nH]c4c3)n2)ccc1N1C[C@@H]2C[C@H]1CN2C` [compound 21, 4-(1H-indol-6-yl)-N-(3-methyl-4-((1S,4S)-5-methyl-2,5-diazabicyclo[2.2.1]heptan-2-yl)phenyl)pyrimidin-2-amine]: the GI50 was less than 1000 nM. `Cc1cc(Nc2nccc(-c3cnc4[nH]ccc4c3)n2)ccc1N1C[C@@H]2C[C@H]1CN2C` [compound 22, 4-(1H-pyrrolo[2,3-b]pyridin-5-yl)-N-(3-methyl-4-((1S,4S)-5-methyl-2,5-diazabicyclo[2.2.1]heptan-2-yl)phenyl)pyrimidin-2-amine]: the GI50 was less than 1000 nM. `CN1C[C@@H]2C[C@H]1CN2c1ccc(Nc2nccc(-c3cnc4[nH]ccc4c3)n2)cc1F` [compound 23, 4-(1H-pyrrolo[2,3-b]pyridin-5-yl)-N-(3-fluoro-4-((1S,4S)-5-methyl-2,5-diazabicyclo[2.2.1]heptan-2-yl)phenyl)pyrimidin-2-amine]: the GI50 is less than 1000 nM. As to `CCN1C[C@@H]2C[C@H]1CN2c1ccc(Nc2nccc(-c3ccc(N(C)C)nc3)n2)cc1C` [compound 24, 4-(6-(dimethylamino)pyridin-3-yl)-N-(3-methyl-4-((1S,4S)-5-ethyl-2,5-diazabicyclo[2.2.1]heptan-2-yl)phenyl)pyrimidin-2-amine], the GI50 is less than 1000 nM. Consider `CCN1C[C@@H]2C[C@H]1CN2c1ccc(Nc2nccc(-c3ccc(N4CCOCC4)nc3)n2)cc1C` [compound 25, 4-(6-(morpholin-4-yl)pyridin-3-yl)-N-(3-methyl-4-((1S,4S)-5-ethyl-2,5-diazabicyclo[2.2.1]heptan-2-yl)phenyl)pyrimidin-2-amine], for which the GI50 was less than 1000 nM.

Take `CCNC(=O)N1C[C@@H]2C[C@H]1CN2c1ccc(Nc2nccc(-c3ccc(N4CCOCC4)nc3)n2)cc1C` [compound 26, 4-(6-(morpholin-4-yl)pyridin-3-yl)-N-(3-methyl-4-((1S,4S)-5-((ethylamino)carbonyl)-2,5-diazabicyclo[2.2.1]heptan-2-yl)phenyl)pyrimidin-2-amine]: the GI50 is less than 1000 nM. As for `Cc1cc(Nc2nccc(-c3cnc4c(c3)OC(C)(C)C(=O)N4)n2)ccc1N1C[C@@H]2C[C@H]1CO2` [compound 27, 4-(2,2-dimethyl-3-oxo-3,4-dihydro-2H-pyrido[3,2-b][1,4]oxazin-7-yl)-N-(3-methyl-4-((1S,4S)-5-oxa-2-azabicyclo[2.2.1]heptan-2-yl)phenyl)pyrimidin-2-amine], the GI50 was less than 1000 nM. `CCC(=O)N1C[C@@H]2C[C@H]1CN2c1ccc(Nc2nccc(-c3cnc4c(c3)OC(C)(C)C(=O)N4)n2)cc1C` [compound 28, 4-(2,2-dimethyl-3-oxo-3,4-dihydro-2H-pyrido[3,2-b][1,4]oxazin-7-yl)-N-(3-methyl-4-((1S,4S)-5-(ethylcarbonyl)-2,5-diazabicyclo[2.2.1]heptan-2-yl)phenyl)pyrimidin-2-amine]: the GI50 is less than 1000 nM.
